One experiment has as its target T1, calcium channels (Oryctolagus cuniculus, UniProt P15381).
T1 construct: from tissue; host or cells: rabbit heart membranes (female New Zealand white rabbits; 42,000 xg pellet)
Briefly: Inhibition of nitrendipine binding to calcium channels. It is filed as New Zealand white rabbit (heart membranes). As to conditions: for IC50: Table II. As for the experimental part:
(1) Inhibition of nitrendipine binding to calcium channels.
The assay for inhibition of nitrendipine binding follows the following procedure:
Female, New Zealand white rabbits (1-2 kg) are sacrificed by cervical dislocation, and the heart is immediately removed, cleaned, and chopped into small pieces. The tissue is homogenized in 5X volume of 0.05M Hepes buffer, pH 7.4. The homogenate is centrifuged at 4000 xg for 10 minutes; the supernatant is recentrifuged at 42,000 xg for 90 minutes. The resulting membrane pellet is resuspended (0.7 ml/g weight) in 0.05M Hepes, pH 7.4 and stored at -70° C. until used. Each tube of the binding assay contains ^3 H-nitrendipine (0.05-0.50nM), buffer, membranes (0.10 ml), and test compound in a total volume of 1.0 ml. After 90 minutes at 4° C., the bound nitrendipine is separated from the unbound by filtration on Whatman GF/C fibers. After rinsing, the filters are dried and counted in a liquid scintillation counter.
Non-specific binding of ^3 H-nitrendipine (that amount bound in the presence of excess unlabelled nitrendipine) is subtracted from the total bound to obtain specifically bound radiolabeled nitrendipine. The amount of specifically bound nitrendipine in the presence of a test compound is compared to that amount bound in the absence of a compound. A percent displacement (or inhibition) can then be obtained.

Another experiment relates to Trachea Muscle. As to the kind of experiment: Inhibition of calcium dependent smooth muscle contraction (trachea). In kind it is cell-based, dog. As to conditions: Table II; concentration 0.3 μM. As for the experimental part:
The test for inhibition of calcium dependent smooth muscle contraction is determined according to the following procedure:
Trachea from dogs sacrificed by excess KCl injection are stored overnight at 4° C. in oxygenated Krebs-Henseleit buffer. Tracheal rings, one cartilage segment wide (5-10 mm), are cut starting from the bronchial end. After cutting the cartilage, the trachealis muscle tissue is suspended in oxygenated Krebs-Henseleit buffer at 37° C. in a 25 ml tissue bath. After a 60 minutes equilibration period, the tissues are challenged with 10 uM carbachol. After 5 minutes the tissues are rinsed and allowed to rest 50 minutes. The tissues are then challenged with 50 mM KCl and, after 30 minutes, the contractions are quantitated. The tissues are then rinsed and reequilibrated for 50 minutes. Test compounds are then added for 10 minutes, and the tissue is rechallenged with 50 mMKcl. After 30 minutes, the contraction is recorded and used to determine the % inhibition of control.
The percent inhibition of smooth muscle contracting is calculated from response data before and after drug treatment. [formula] A rating is assigned to the compound depending upon the percent inhibition obtained.

Where two headings read alike, the source gives them in different places.

T1 sequence (P15381 whole entry, other chains not shown): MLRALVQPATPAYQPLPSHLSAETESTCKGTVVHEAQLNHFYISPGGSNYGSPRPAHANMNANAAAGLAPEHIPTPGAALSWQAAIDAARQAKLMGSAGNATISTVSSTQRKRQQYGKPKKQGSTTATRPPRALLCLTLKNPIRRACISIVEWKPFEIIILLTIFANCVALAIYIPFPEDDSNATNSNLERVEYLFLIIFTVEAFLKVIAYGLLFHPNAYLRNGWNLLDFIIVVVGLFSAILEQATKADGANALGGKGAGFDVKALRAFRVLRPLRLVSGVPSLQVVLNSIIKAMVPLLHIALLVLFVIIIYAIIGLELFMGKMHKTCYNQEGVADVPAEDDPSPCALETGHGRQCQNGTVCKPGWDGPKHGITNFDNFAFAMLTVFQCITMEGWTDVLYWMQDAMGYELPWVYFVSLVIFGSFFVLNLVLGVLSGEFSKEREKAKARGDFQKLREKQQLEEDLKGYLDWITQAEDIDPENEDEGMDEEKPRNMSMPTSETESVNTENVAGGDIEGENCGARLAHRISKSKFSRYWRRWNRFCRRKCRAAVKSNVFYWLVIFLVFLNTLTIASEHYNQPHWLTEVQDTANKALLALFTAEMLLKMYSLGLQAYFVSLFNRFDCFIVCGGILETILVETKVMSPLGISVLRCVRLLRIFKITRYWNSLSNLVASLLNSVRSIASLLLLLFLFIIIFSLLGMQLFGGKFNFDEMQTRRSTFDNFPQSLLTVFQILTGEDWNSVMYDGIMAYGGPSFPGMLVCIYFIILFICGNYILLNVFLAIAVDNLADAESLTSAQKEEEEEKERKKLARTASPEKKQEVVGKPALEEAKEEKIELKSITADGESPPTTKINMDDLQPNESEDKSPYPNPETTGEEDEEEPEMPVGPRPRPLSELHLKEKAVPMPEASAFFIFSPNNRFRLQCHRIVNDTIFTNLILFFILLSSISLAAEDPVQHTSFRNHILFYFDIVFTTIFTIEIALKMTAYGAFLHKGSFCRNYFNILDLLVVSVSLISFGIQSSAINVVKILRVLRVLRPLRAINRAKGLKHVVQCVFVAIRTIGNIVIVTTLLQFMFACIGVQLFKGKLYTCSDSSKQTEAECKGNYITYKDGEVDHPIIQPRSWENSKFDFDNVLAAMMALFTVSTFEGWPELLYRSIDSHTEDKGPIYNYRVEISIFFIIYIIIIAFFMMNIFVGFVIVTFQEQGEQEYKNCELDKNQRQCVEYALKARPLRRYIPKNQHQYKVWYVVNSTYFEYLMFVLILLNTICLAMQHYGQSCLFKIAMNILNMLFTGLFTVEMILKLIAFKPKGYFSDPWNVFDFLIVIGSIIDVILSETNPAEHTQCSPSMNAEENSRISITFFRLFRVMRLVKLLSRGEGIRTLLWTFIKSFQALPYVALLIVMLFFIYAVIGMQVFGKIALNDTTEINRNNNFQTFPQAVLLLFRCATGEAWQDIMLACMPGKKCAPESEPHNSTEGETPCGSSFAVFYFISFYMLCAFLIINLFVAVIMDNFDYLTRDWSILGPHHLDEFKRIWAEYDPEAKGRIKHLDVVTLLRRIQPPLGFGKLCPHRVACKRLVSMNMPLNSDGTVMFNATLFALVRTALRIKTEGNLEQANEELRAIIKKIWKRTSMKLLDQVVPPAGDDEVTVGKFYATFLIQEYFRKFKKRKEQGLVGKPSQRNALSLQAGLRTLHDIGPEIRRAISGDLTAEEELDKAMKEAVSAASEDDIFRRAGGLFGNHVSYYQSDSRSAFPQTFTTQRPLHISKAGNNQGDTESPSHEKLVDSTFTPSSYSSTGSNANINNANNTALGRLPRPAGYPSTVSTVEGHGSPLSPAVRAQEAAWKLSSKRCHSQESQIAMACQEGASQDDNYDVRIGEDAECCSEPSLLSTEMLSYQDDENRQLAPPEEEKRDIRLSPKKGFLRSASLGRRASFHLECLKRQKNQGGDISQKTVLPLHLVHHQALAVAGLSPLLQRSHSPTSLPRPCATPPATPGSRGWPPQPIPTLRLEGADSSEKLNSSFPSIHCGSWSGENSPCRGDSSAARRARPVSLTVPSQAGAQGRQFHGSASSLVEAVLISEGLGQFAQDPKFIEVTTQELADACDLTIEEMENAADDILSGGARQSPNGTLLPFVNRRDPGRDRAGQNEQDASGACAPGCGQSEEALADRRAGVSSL
T1 sequence (P13806 27-960 partner limits assumed, other chains not shown): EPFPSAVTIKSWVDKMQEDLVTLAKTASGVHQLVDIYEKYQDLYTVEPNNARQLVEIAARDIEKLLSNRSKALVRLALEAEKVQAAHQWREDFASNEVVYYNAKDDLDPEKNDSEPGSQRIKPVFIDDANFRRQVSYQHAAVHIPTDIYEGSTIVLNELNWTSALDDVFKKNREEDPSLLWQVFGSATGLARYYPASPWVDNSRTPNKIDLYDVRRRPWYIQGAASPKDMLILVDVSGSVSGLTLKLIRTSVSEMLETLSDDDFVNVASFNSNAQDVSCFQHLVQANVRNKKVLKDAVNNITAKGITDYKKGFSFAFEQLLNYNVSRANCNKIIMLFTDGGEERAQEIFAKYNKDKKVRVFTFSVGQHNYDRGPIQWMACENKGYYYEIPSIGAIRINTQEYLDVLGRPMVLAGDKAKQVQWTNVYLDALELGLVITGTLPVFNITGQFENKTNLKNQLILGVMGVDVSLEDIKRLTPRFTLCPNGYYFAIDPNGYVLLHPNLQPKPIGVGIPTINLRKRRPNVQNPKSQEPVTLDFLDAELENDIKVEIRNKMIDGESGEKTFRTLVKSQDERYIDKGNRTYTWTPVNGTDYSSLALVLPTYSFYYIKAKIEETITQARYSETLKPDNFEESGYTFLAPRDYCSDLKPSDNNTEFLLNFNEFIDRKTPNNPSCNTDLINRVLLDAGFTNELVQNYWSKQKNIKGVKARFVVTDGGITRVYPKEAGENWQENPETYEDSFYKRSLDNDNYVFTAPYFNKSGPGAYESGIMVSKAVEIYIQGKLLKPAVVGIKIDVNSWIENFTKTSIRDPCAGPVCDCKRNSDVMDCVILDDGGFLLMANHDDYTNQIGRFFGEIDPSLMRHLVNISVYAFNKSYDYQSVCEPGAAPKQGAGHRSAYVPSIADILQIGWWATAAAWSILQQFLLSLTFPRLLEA
T1 sequence (P13806 961-1106 partner limits assumed, other chains not shown): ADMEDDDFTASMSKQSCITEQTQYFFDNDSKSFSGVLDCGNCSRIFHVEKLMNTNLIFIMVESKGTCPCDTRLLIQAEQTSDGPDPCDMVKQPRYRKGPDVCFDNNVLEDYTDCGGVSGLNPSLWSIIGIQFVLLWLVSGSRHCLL

Take `CCOC(=O)C1=C(C)NC2=C(C1c1cccnc1SC)S(=O)(=O)CCCCC2` (stereo not shown) [drawing 8 CH2 CH3]: at calcium channels (first part, read-out: Inhibition of Nitrendipine binding IC50), the IC50 turned out to be 0.108 µM. Moreover, the “Inhibition of Trachea Muscle Contraction, % Inhibition” value with Trachea Muscle was found to be 79%.

Take `CC1=C(C(=O)OCCN(C)Cc2ccccc2)C(c2ccccc2[N+](=O)[O-])C2=C(CCCCCS2(=O)=O)N1` (stereo not shown) [5 2-NO2 C6 H4 CH2 CH2 NCH3 CH2 C6 H5]: on calcium channels (second part, read-out: Inhibition Nitrendipine binding IC^50), the IC50 turned out to be 0.11 µM. As to `COC(=O)C1=C(C)NC2(O)CCS(=O)(=O)C2C1c1ccccc1[N+](=O)[O-]` (stereo not shown) [Methyl 2,3,3a,4,7,7a-hexahydro-3a-hydroxy-5-methyl-7-(2-nitrophenyl)-1,1-dioxo-thieno[3,2-b]pyridine-6-carboxylate], the “Inhibition of Nitrendipine binding (percent at stated concentration)” value on calcium channels (Table I, @ 8.0) came out at 56%.

For the origin of these results see patent publication US4879384A, “Preparation of thiocycloalkno [3,2-b] pyridines” (Ortho Pharmaceutical Corporation, priority 1988, dated 1989).
